Where a name gives a salt, the structure may show the parent alone. Read-outs that look alike come from different tables or passages of the source.
Key:
mice [1] = assay: Radioprotective activity: survival at the 30th day after irradiation; assay type: in vivo; conditions: for responders at 400 mg/kg: 400 mg/kg i.p.; for responders at 1000 mg/kg: 1,000 mg/kg i.p.; for responders at 625 mg/kg: 625 mg/kg i.p.; for radioprotective activity (in words): mouse, in vivo; for responders at 500 mg/kg: 500 mg/kg i.p.
Experimental: This study of radioprotective activity was carried out according to a technique described by M. Fatome at al., Eur. J. Med. Chem. 1977, 12, (1), 93. […] This dose is equal to 950 Rad.
More complete studies are recorded in Table II.

mice [2] = assay: Acute toxicity (LD50), i.p.; assay type: in vivo; conditions: for LD50: Table I
[3] = Acute toxicity (LD50), i.p.; assay type: in vivo, mice; conditions: mouse, in vivo, ip
[4] = Mus musculus, light or radiation study, ip, 720 h, Table I, 750 mg/kg i.p., 15' before irradiation at 900 or 950 Rad, read-out: % survival at the 30th day
[5] = Mus musculus, light or radiation study, ip, 720 h, Table I, 15' before irradiation at 900 or 950 Rad, read-out: % survival at the 30th day
[6] = Mus musculus, light or radiation study, ip, 720 h, read-out: % survival at the 30th day, Table I, 750 mg/kg i.p., 15' before irradiation at 900 or 950 Rad
[7] = Mus musculus, light or radiation study, ip, 720 h, read-out: % survival at 30 days, Table II, 750 mg/kg i.p., 15' before irradiation, 900 Rad
[8] = Mus musculus, light or radiation study, ip, 720 h, read-out: % survival at 30 days, Table II, 750 mg/kg i.p., 2 hours before irradiation, 900 Rad
[9] = Mus musculus, light or radiation study, ip, 720 h, Table II, 15' before irradiation, 900 Rad, read-out: % survival at 30 days
[10] = Mus musculus, light or radiation study, ip, 720 h, Table II, 15' before irradiation, 1,100 Rad, read-out: % survival at 30 days
[11] = Mus musculus, light or radiation study, ip, 720 h, Table II, 15' before irradiation, 950 Rad, read-out: % survival at 30 days

`Br.CC(=O)SCCNC(=O)CN` [Example 2, HYDROBROMIDE] gave a responders at 187 mg/kg (mice [1]; Mus musculus, light or radiation study, ip, 720 h, Table I, 187 mg/kg i.p., 15' before irradiation at 900 or 950 Rad, read-out: % survival at the 30th day) of 67% and a responders at 750 mg/kg (mice [1]; [4]) of 100%.

For `Br.CC(=O)SCCNC(=O)CN` [Example 2], the LD50 (mice [2]) was 1,500 mg/kg.

Compound `Br.CC(=O)SCCNC(=O)[C@H](C)N` [Example 4, HYDROBROMIDE] has a responders at 188 mg/kg (mice [1]; Mus musculus, light or radiation study, ip, 720 h, Table I, 188 mg/kg i.p., 15' before irradiation at 900 or 950 Rad) of 40% and a responders at 750 mg/kg (mice [1]; [4]) of 80%.

For `Br.CC(=O)SCCNC(=O)[C@H](C)N` [Example 4], the LD50 (mice [2]) was 1,500 mg/kg.

`Br.CC(=O)SCCNC(=O)CCCN` [Example 6, HYDROBROMIDE] gave a responders at 400 mg/kg (mice [1]; [5]) of 60%.

In the case of `Br.CC(=O)SCCNC(=O)CCCN` [Example 6], the LD50 (mice [2]) was 800 mg/kg.

In the case of `CC(=O)SCCNC(=O)CN` [Example 8], the LD50 ([3]; Table I) was 1200 mg/kg, the LD50 ([3]; Table II) was 1200 mg/kg and the “% survival at the 30th day” value (mice [1]; Table I, 750 mg/kg i.p., 15' before irradiation at 900 or 950 Rad) was 93%. For the same compound, the “% survival at 30 days” value (mice [1]; Table II, 187 mg/kg i.p., 15' before irradiation, 900 Rad) was 0%, the “% survival at 30 days” value (mice [1]; Table II, 750 mg/kg i.p., 15' before irradiation, 900 Rad) was 93% and the “% survival at 30 days” value (mice [1]; Table II, 750 mg/kg i.p., 15' before irradiation, 1,100 Rad) was 50%.

Compound `NCC(=O)NCCSC(=O)C(Cl)Cl.O=C(O)C(F)(F)F` [Example 10, N-GLYCYL-S-(DICHLOROACETYL)CYSTEAMINE TRIFLUOROACETATE] has an LD50 (mice [2]) of 800 mg/kg and a responders at 800 mg/kg (mice [1]; Mus musculus, light or radiation study, ip, 720 h, Table I, 800 mg/kg i.p., 15' before irradiation at 900 or 950 Rad) of 40%.

For `Br.Br.NCC(=O)NCCSSCCNC(=O)CN` [Example 16, N,N'-[…] DIHYDROBROMIDE], the LD50 (mice [2]) was 1,500 mg/kg and the responders at 750 mg/kg (mice [1]; [6]) was 100%.

`NCC(=O)NCCSSCCNC(=O)CN.O=C(O)C(F)(F)F.O=C(O)C(F)(F)F` [Example 18, N,N'-[…] DI(TRIFLUOROACETATE)] gave an LD50 ([3]; Table I) of 1200 mg/kg, an LD50 ([3]; Table II) of 1250 mg/kg and a responders at 47 mg/kg (mice [1]; Mus musculus, light or radiation study, ip, 720 h, read-out: % survival at 30 days, Table II, 47 mg/kg i.p., 15' before irradiation, 900 Rad) of 0%. It also gave a responders at 94 mg/kg (mice [1]; Mus musculus, light or radiation study, ip, 720 h, read-out: % survival at 30 days, Table II, 94 mg/kg i.p., 15' before irradiation, 900 Rad) of 30%, a responders at 187 mg/kg (mice [1]; Mus musculus, light or radiation study, ip, 720 h, read-out: % survival at 30 days, Table II, 187 mg/kg i.p., 15' before irradiation, 900 Rad) of 90% and a responders at 187 mg/kg (mice [1]; Mus musculus, light or radiation study, ip, 720 h, read-out: % survival at 30 days, Table II, 187 mg/kg i.p., 15' before irradiation, 1,100 Rad) of 0%. The responders at 750 mg/kg (mice [1]; [7]) was 100%, the responders at 750 mg/kg (mice [1]; Mus musculus, light or radiation study, ip, 720 h, read-out: % survival at 30 days, Table II, 750 mg/kg i.p., 15' before irradiation, 1,300 Rad) was 10% and the responders at 750 mg/kg (mice [1]; [8]) was 60%. The responders at 1000 mg/kg (mice [1]; Mus musculus, light or radiation study, ip, 720 h, read-out: % survival at 30 days, Table II, 15' before irradiation, 1,300 Rad) was 0% and the “% survival at the 30th day” value (mice [1]; ip, 750 mg/kg, 720 h) was 100%.

`Br.Br.C[C@H](N)C(=O)NCCSSCCNC(=O)[C@H](C)N` [Example 19, N,N'-[…] DIHYDROBROMIDE] gave an LD50 ([3]; Table I) of 800 mg/kg and a responders at 400 mg/kg (mice [1]; Mus musculus, light or radiation study, ip, 720 h, read-out: % survival at the 30th day, Table I, 15' before irradiation at 900 or 950 Rad) of 100%.

Compound `CC(=O)SCCNC(=O)[C@H](C)N.O=C(O)C(F)(F)F` [Example 22, TRIFLUOROACETATE] has a responders at 156 mg/kg (mice [1]; Mus musculus, ip, 720 h, Table II, 156 mg/kg i.p., time and Rad not given, read-out: % survival at 30 days) of 0%, a responders at 625 mg/kg (mice [1]; [5]) of 100% and a responders at 625 mg/kg (mice [1]; Mus musculus, light or radiation study, ip, 720 h, Table II, 2 (hours, cut off) before irradiation, 900 Rad, read-out: % survival at 30 days) of 10%. For the same compound, the responders at 625 mg/kg (mice [1]; [9]) was 100% and the responders at 625 mg/kg (mice [1]; [10]) was 50%.

With `CC(=O)SCCNC(=O)[C@H](C)N.O=C(O)C(F)(F)F` [Example 22] the LD50 ([3]; Table II) was 1250 mg/kg, the LD50 (mice [2]) was 1,250 mg/kg and the “toxicity (in words)” value (mice [2]; mouse, in vivo) was “low toxicity”. The “radioprotective activity (in words)” value (mice [1]) was “good radioprotection”.

Compound `CC(=O)NC(C)(C)CSC(=O)CN.O=C(O)C(F)(F)F` [Example 24, TRIFLUOROACETATE] has a responders at 750 mg/kg (mice [1]; [7]) of 70%, a responders at 750 mg/kg (mice [1]; Mus musculus, light or radiation study, ip, 720 h, read-out: % survival at 30 days, Table II, 750 mg/kg i.p., 15' before irradiation, 1,100 Rad) of 13% and a responders at 750 mg/kg (mice [1]; [8]) of 50%. It also gave a responders at 750 mg/kg (mice [1]; [6]) of 70%.

In the case of `CC(=O)NC(C)(C)CSC(=O)CN.O=C(O)C(F)(F)F` [Example 24], the LD50 ([3]; Table I) was 1500 mg/kg, the LD50 ([3]; Table II) was 1500 mg/kg and the “radioprotective activity (in words)” value (mice [1]) was “show radioprotective activity”.

With `CC(=O)SCC(C)(C)NC(=O)CN` [Example 26, TRIFLUOROACETATE] the LD50 ([3]; Table I) was 1200 mg/kg, the LD50 ([3]; Table II) was 1200 mg/kg and the responders at 750 mg/kg (mice [1]; Mus musculus, ip, 720 h, Table II, 750 mg/kg i.p., 4th entry, time and Rad not given, read-out: % survival at 30 days) was 0%. The responders at 750 mg/kg (mice [1]; [4]) was 60%, the responders at 187 mg/kg (mice [1]; Mus musculus, light or radiation study, ip, 720 h, Table II, 187 mg/kg i.p., 15' before irradiation, 900 Rad, read-out: % survival at 30 days) was 40% and the responders at 750 mg/kg (mice [1]; Mus musculus, light or radiation study, ip, 720 h, Table II, 750 mg/kg i.p., 15' before irradiation, 900 Rad, read-out: % survival at 30 days) was 60%. For the same compound, the responders at 750 mg/kg (mice [1]; Mus musculus, light or radiation study, ip, 720 h, Table II, 750 mg/kg i.p., 2 hours before irradiation, 900 Rad, read-out: % survival at 30 days) was 70% and the “radioprotective activity (in words)” value (mice [1]) was “show radioprotective activity”.

`CC(=O)SCCNC(=O)CNC(=O)CN.O=C(O)C(F)(F)F` [Example 28, TRIFLUOROACETATE] showed a responders at 1000 mg/kg (mice [1]; [5]) of 100%, a responders at 1000 mg/kg (mice [1]; [9]) of 100% and a responders at 1000 mg/kg (mice [1]; [10]) of 0%. For the same compound, the responders at 1500 mg/kg (mice [1]; Mus musculus, light or radiation study, ip, 720 h, Table II, 1,500 mg/kg i.p., 15' before irradiation, Rad not printed (1,100 in text), read-out: % survival at 30 days) was 100%.

Compound `CC(=O)SCCNC(=O)CNC(=O)CN.O=C(O)C(F)(F)F` [Example 28] has an LD50 [3] greater than 2000 mg/kg, an LD50 ([3]; Table I) greater than 2000 mg/kg and an LD50 ([3]; Table II) greater than 2000 mg/kg. The “survival at 30 days” value (mice [1]; mice, 1,500 mg/kg (i.p.) 15 minutes before irradiation of 1,100 Rad) was 100%.

For `CC(=O)OC(CNC(=O)CN)CSSCC(CNC(=O)CN)OC(C)=O` (stereo not drawn) [Example 31, 1,2-DI(3-GLYCYLAMINO-2-ACETOXYPROPYL)[…](TRIFLUOROACETATE)], the LD50 ([3]; Table I) was 750 mg/kg, the LD50 ([3]; Table II) was 750 mg/kg and the “% survival at 30 days” value (mice [1]; ip, 93.7 mg/kg, 720 h) was 0%. The “% survival at the 30th day” value (mice [1]; ip, 375 mg/kg) was 60%.

For `CC(=O)NCCSC(=O)CN.O=C(O)C(F)(F)F` [Example 34, TRIFLUOROACETATE], the responders at 500 mg/kg (mice [1]; [5]) was 70%, the responders at 125 mg/kg (mice [1]; Mus musculus, light or radiation study, ip, 720 h, Table II, 125 mg/kg i.p., 15' before irradiation, 950 Rad, read-out: % survival at 30 days) was 20% and the responders at 500 mg/kg (mice [1]; [11]) was 70%.

In the case of `NCC(=O)NCC(=O)NCCSSCCNC(=O)CNC(=O)CN.O=C(O)C(F)(F)F.O=C(O)C(F)(F)F` [Example 36, N,N'-DI(GLYCYLGLYCYL)CYSTAMINE DI(TRIFLUOROACETATE)], the LD50 ([3]; Table I) was 2000 mg/kg, the LD50 ([3]; Table II) was 2000 mg/kg and the responders at 1000 mg/kg (mice [1]; [5]) was 30%. It also gave a responders at 250 mg/kg (mice [1]; Mus musculus, light or radiation study, ip, 720 h, Table II, 250 mg/kg i.p., 15' before irradiation, 950 Rad, read-out: % survival at 30 days) of 10% and a responders at 1000 mg/kg (mice [1]; [11]) of 30%.
